{"source": "PubChem BioAssay (NCI)", "assay_in_all_cases": "NCI anticancer screen, dose series, 48 h", "key": {"[1]": {"tested_on": "NCI-H226 lung"}, "[2]": {"tested_on": "NCI-H23 lung"}, "[3]": {"tested_on": "NCI-H460 lung"}, "[4]": {"tested_on": "NCI-H522 lung"}, "[5]": {"tested_on": "NCI/ADR-RES ovarian"}, "[6]": {"tested_on": "OVCAR-3 ovarian"}, "[7]": {"tested_on": "OVCAR-4 ovarian"}, "[8]": {"tested_on": "OVCAR-5 ovarian"}, "[9]": {"tested_on": "OVCAR-8 ovarian"}, "[10]": {"tested_on": "PC-3 prostate"}, "[11]": {"tested_on": "RPMI-8226 leukemia"}, "[12]": {"tested_on": "RXF 393 renal"}, "[13]": {"tested_on": "SF-268 CNS"}, "[14]": {"tested_on": "SF-295 CNS"}, "[15]": {"tested_on": "SK-MEL-2 melanoma"}, "[16]": {"tested_on": "SK-MEL-28 melanoma"}, "[17]": {"tested_on": "SK-MEL-5 melanoma"}, "[18]": {"tested_on": "SK-OV-3 ovarian"}, "[19]": {"tested_on": "SN12C renal"}, "[20]": {"tested_on": "SNB-19 CNS"}, "[21]": {"tested_on": "SNB-75 CNS"}, "[22]": {"tested_on": "SR leukemia"}, "[23]": {"tested_on": "SW-620 colon"}, "[24]": {"tested_on": "T-47D breast"}, "[25]": {"tested_on": "TK-10 renal"}, "[26]": {"tested_on": "U251 CNS"}, "[27]": {"tested_on": "UACC-257 melanoma"}, "[28]": {"tested_on": "UACC-62 melanoma"}, "[29]": {"tested_on": "UO-31 renal"}}, "note": "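Step 1: Grow cells in 96-well plates. Step 2: Expose to compound for 48 hours at 5 concentrations. Step 3: Interpolate endpoints linearly; if unreached, use highest concentration. GI50: concentration for 50% inhibition of growth. TGI: total growth inhibition.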"}
{"smiles": "Cc1nc(Sc2nc3ccc([N+](=O)[O-])cc3s2)sc1C", "values": [{"measurement": "TGI", "setting": "[1]", "value": 2.84, "unit": "µM"}, {"measurement": "GI50", "setting": "[2]", "value": 1.03, "unit": "µM"}, {"measurement": "TGI", "setting": "[2]", "value": 4.44, "unit": "µM"}, {"measurement": "GI50", "setting": "[3]", "value": 0.894, "unit": "µM"}, {"measurement": "TGI", "setting": "[3]", "value": 6.26, "unit": "µM"}, {"measurement": "GI50", "setting": "[4]", "value": 0.627, "unit": "µM"}, {"measurement": "TGI", "setting": "[4]", "value": 2.36, "unit": "µM"}, {"measurement": "GI50", "setting": "[5]", "value": 1.63, "unit": "µM"}, {"measurement": "TGI", "setting": "[5]", "value": 5.45, "unit": "µM"}, {"measurement": "GI50", "setting": "[6]", "value": 1.35, "unit": "µM"}, {"measurement": "TGI", "setting": "[6]", "value": 3.28, "unit": "µM"}, {"measurement": "GI50", "setting": "[7]", "value": 1.35, "unit": "µM"}, {"measurement": "TGI", "setting": "[7]", "value": 9.81, "unit": "µM"}, {"measurement": "GI50", "setting": "[8]", "value": 2.84, "unit": "µM"}, {"measurement": "TGI", "setting": "[8]", "value": 11.8, "unit": "µM"}, {"measurement": "GI50", "setting": "[9]", "value": 1.79, "unit": "µM"}, {"measurement": "TGI", "setting": "[9]", "value": 7.12, "unit": "µM"}, {"measurement": "GI50", "setting": "[10]", "value": 1.15, "unit": "µM"}, {"measurement": "TGI", "setting": "[10]", "value": 7.63, "unit": "µM"}, {"measurement": "GI50", "setting": "[11]", "value": 1.8, "unit": "µM"}, {"measurement": "TGI", "setting": "[11]", "value": 6.52, "unit": "µM"}, {"measurement": "GI50", "setting": "[12]", "value": 1.22, "unit": "µM"}, {"measurement": "TGI", "setting": "[12]", "value": 3.39, "unit": "µM"}, {"measurement": "GI50", "setting": "[13]", "value": 1.7, "unit": "µM"}, {"measurement": "TGI", "setting": "[13]", "value": 10.9, "unit": "µM"}, {"measurement": "GI50", "setting": "[14]", "value": 13.8, "unit": "µM"}, {"measurement": "TGI", "setting": "[14]", "value": 26.7, "unit": "µM"}, {"measurement": "GI50", "setting": "[15]", "value": 1.6, "unit": "µM"}, {"measurement": "TGI", "setting": "[15]", "value": 4.53, "unit": "µM"}, {"measurement": "GI50", "setting": "[16]", "value": 1.77, "unit": "µM"}, {"measurement": "TGI", "setting": "[16]", "value": 4.76, "unit": "µM"}, {"measurement": "GI50", "setting": "[17]", "value": 1.67, "unit": "µM"}, {"measurement": "TGI", "setting": "[17]", "value": 4.58, "unit": "µM"}, {"measurement": "GI50", "setting": "[18]", "value": 4.38, "unit": "µM"}, {"measurement": "TGI", "setting": "[18]", "value": 15.5, "unit": "µM"}, {"measurement": "GI50", "setting": "[19]", "value": 1.74, "unit": "µM"}, {"measurement": "TGI", "setting": "[19]", "value": 6.04, "unit": "µM"}, {"measurement": "GI50", "setting": "[20]", "value": 8.41, "unit": "µM"}, {"measurement": "TGI", "setting": "[20]", "value": 21.9, "unit": "µM"}, {"measurement": "GI50", "setting": "[21]", "value": 2.48, "unit": "µM"}, {"measurement": "TGI", "setting": "[21]", "value": 12.3, "unit": "µM"}, {"measurement": "GI50", "setting": "[22]", "value": 0.367, "unit": "µM"}, {"measurement": "TGI", "setting": "[22]", "value": 5.94, "unit": "µM"}, {"measurement": "GI50", "setting": "[23]", "value": 0.482, "unit": "µM"}, {"measurement": "TGI", "setting": "[23]", "value": 3.53, "unit": "µM"}, {"measurement": "GI50", "setting": "[24]", "value": 1.32, "unit": "µM"}, {"measurement": "TGI", "setting": "[24]", "value": 6.17, "unit": "µM"}, {"measurement": "GI50", "setting": "[25]", "value": 2.05, "unit": "µM"}, {"measurement": "TGI", "setting": "[25]", "value": 7.87, "unit": "µM"}, {"measurement": "GI50", "setting": "[26]", "value": 1.99, "unit": "µM"}, {"measurement": "TGI", "setting": "[26]", "value": 7.9, "unit": "µM"}, {"measurement": "GI50", "setting": "[27]", "value": 4.62, "unit": "µM"}, {"measurement": "TGI", "setting": "[27]", "value": 16.4, "unit": "µM"}, {"measurement": "GI50", "setting": "[28]", "value": 1.22, "unit": "µM"}, {"measurement": "TGI", "setting": "[28]", "value": 3.49, "unit": "µM"}, {"measurement": "GI50", "setting": "[29]", "value": 1.49, "unit": "µM"}, {"measurement": "TGI", "setting": "[29]", "value": 4.17, "unit": "µM"}]}
